# Measured values published in PubChem BioAssay (NCI).
#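 Growth conditions: 96-well plates. Treatment: test compound, 48 hours, 5 concentrations. Analysis: linear interpolation between bracketing concentrations; unreached endpoints set to highest concentration. Here, GI50 denotes the concentration required for 50% inhibition of growth. TGI: total growth inhibition.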
# Experiments:
# Assay in all cases: inhibition of tumour cell growth, NCI panel, 48 h
# [1] = test system: HT29 colon
# [2] = test system: IGROV1 ovarian
# [3] = test system: NCI/ADR-RES ovarian
# [4] = test system: RXF 393 renal
# [5] = test system: HS 578T breast
# [6] = test system: MDA-MB-435
# [7] = test system: SNB-75 CNS
# [8] = test system: UO-31 renal
# [9] = test system: KM12 colon
# [10] = test system: MDA-MB-231 breast
# [11] = test system: TK-10 renal
# [12] = test system: SF-295 CNS
# [13] = test system: DU-145 prostate
# [14] = test system: SNB-19 CNS
# [15] = test system: HOP-62 NSCLC
# [16] = test system: SK-MEL-5 melanoma
# [17] = test system: SF-539 CNS
# [18] = test system: A549 NSCLC
# [19] = test system: SF-268 CNS
# [20] = test system: A498 renal
# [21] = test system: 786-0 renal
# [22] = test system: SR leukemia
# [23] = test system: HCC-2998 colon
# [24] = test system: HCT-15 colon
# [25] = test system: MOLT-4 leukemia
# [26] = test system: M14 melanoma
# [27] = test system: RPMI-8226 leukemia
# [28] = test system: NCI-H522 lung
# [29] = test system: K-562 leukemia
# [30] = test system: COLO 205 colon
# [31] = test system: HL-60(TB) leukemia
# [32] = test system: HCT-116 colon
# [33] = test system: OVCAR-3 ovarian
# [34] = test system: OVCAR-8 ovarian
# [35] = test system: HOP-92 NSCLC
# [36] = test system: UACC-62 melanoma
# [37] = test system: OVCAR-4 ovarian
# [38] = test system: SN12C renal
# [39] = test system: LOX IMVI melanoma
# [40] = test system: SW-620 colon
# [41] = test system: NCI-H460 lung
# [42] = test system: CAKI-1 renal
# [43] = test system: MCF7 breast
# [44] = test system: NCI-H23 lung
# [45] = test system: MDA-MB-468 breast
# [46] = test system: SK-OV-3 ovarian
# [47] = test system: MALME-3M melanoma
# [48] = test system: NCI-H226 lung
# [49] = test system: CCRF-CEM leukemia
# [50] = test system: U251 CNS
# [51] = test system: BT-549 breast
# [52] = test system: UACC-257 melanoma
# [53] = test system: SK-MEL-28 melanoma
# [54] = test system: OVCAR-5 ovarian
# [55] = test system: EKVX NSCLC
# [56] = test system: ACHN renal
# [57] = test system: PC-3 prostate
# [58] = test system: T-47D breast
# [59] = test system: SK-MEL-2 melanoma
smiles,measurement,setting,value
N#Cc1ccc(C(=O)CSc2nc3c(c(Nc4ccc(S(N)(=O)=O)cc4)n2)CCC3)cc1,GI50,[1],> 22.5 µM
same,TGI,[1],> 22.5 µM
same,GI50,[2],> 22.5 µM
same,TGI,[2],> 22.5 µM
same,GI50,[3],> 22.5 µM
same,TGI,[3],> 22.5 µM
same,GI50,[4],> 22.5 µM
same,TGI,[4],> 22.5 µM
same,GI50,[5],> 22.5 µM
same,TGI,[5],> 22.5 µM
same,GI50,[6],> 22.5 µM
same,TGI,[6],> 22.5 µM
same,GI50,[7],> 22.5 µM
same,TGI,[7],> 22.5 µM
same,GI50,[8],> 22.5 µM
same,TGI,[8],> 22.5 µM
same,GI50,[9],> 22.5 µM
same,TGI,[9],> 22.5 µM
same,GI50,[10],> 22.5 µM
same,TGI,[10],> 22.5 µM
same,GI50,[11],> 22.5 µM
same,TGI,[11],> 22.5 µM
same,GI50,[12],> 22.5 µM
same,TGI,[12],> 22.5 µM
same,GI50,[13],> 22.5 µM
same,TGI,[13],> 22.5 µM
same,GI50,[14],> 22.5 µM
same,TGI,[14],> 22.5 µM
same,GI50,[15],> 22.5 µM
same,TGI,[15],> 22.5 µM
same,GI50,[16],> 22.5 µM
same,TGI,[16],> 22.5 µM
same,GI50,[17],> 22.5 µM
same,TGI,[17],> 22.5 µM
same,GI50,[18],> 22.5 µM
same,TGI,[18],> 22.5 µM
same,GI50,[19],> 22.5 µM
same,TGI,[19],> 22.5 µM
same,GI50,[20],> 22.5 µM
same,TGI,[20],> 22.5 µM
same,GI50,[21],> 22.5 µM
same,TGI,[21],> 22.5 µM
same,GI50,[22],> 22.5 µM
same,TGI,[22],> 22.5 µM
same,GI50,[23],> 22.5 µM
same,TGI,[23],> 22.5 µM
same,GI50,[24],> 22.5 µM
same,TGI,[24],> 22.5 µM
same,GI50,[25],> 22.5 µM
same,TGI,[25],> 22.5 µM
same,GI50,[26],> 22.5 µM
same,TGI,[26],> 22.5 µM
same,GI50,[27],> 22.5 µM
same,TGI,[27],> 22.5 µM
same,GI50,[28],> 22.5 µM
same,TGI,[28],> 22.5 µM
same,GI50,[29],> 22.5 µM
same,TGI,[29],> 22.5 µM
same,GI50,[30],> 22.5 µM
same,TGI,[30],> 22.5 µM
same,GI50,[31],> 22.5 µM
same,TGI,[31],> 22.5 µM
same,GI50,[32],> 22.5 µM
same,TGI,[32],> 22.5 µM
same,GI50,[33],> 22.5 µM
same,TGI,[33],> 22.5 µM
same,GI50,[34],> 22.5 µM
same,TGI,[34],> 22.5 µM
same,GI50,[35],> 22.5 µM
same,TGI,[35],> 22.5 µM
same,GI50,[36],> 22.5 µM
same,TGI,[36],> 22.5 µM
same,GI50,[37],> 22.5 µM
same,TGI,[37],> 22.5 µM
same,GI50,[38],> 22.5 µM
same,TGI,[38],> 22.5 µM
same,GI50,[39],> 22.5 µM
same,TGI,[39],> 22.5 µM
same,GI50,[40],> 22.5 µM
same,TGI,[40],> 22.5 µM
same,GI50,[41],> 22.5 µM
same,TGI,[41],> 22.5 µM
same,GI50,[42],> 22.5 µM
same,TGI,[42],> 22.5 µM
same,GI50,[43],> 22.5 µM
same,TGI,[43],> 22.5 µM
same,GI50,[44],> 22.5 µM
same,TGI,[44],> 22.5 µM
same,GI50,[45],> 22.5 µM
same,TGI,[45],> 22.5 µM
same,GI50,[46],> 22.5 µM
same,TGI,[46],> 22.5 µM
same,GI50,[47],> 22.5 µM
same,TGI,[47],> 22.5 µM
same,GI50,[48],> 22.5 µM
same,TGI,[48],> 22.5 µM
same,GI50,[49],> 22.5 µM
same,TGI,[49],> 22.5 µM
same,GI50,[50],> 22.5 µM
same,TGI,[50],> 22.5 µM
same,GI50,[51],> 22.5 µM
same,TGI,[51],> 22.5 µM
same,GI50,[52],> 22.5 µM
same,TGI,[52],> 22.5 µM
same,GI50,[53],> 22.5 µM
same,TGI,[53],> 22.5 µM
same,GI50,[54],> 22.5 µM
same,TGI,[54],> 22.5 µM
same,GI50,[55],> 22.5 µM
same,TGI,[55],> 22.5 µM
same,GI50,[56],> 22.5 µM
same,TGI,[56],> 22.5 µM
same,GI50,[57],> 22.5 µM
same,TGI,[57],> 22.5 µM
same,GI50,[58],> 22.5 µM
same,TGI,[58],> 22.5 µM
same,GI50,[59],> 22.5 µM
same,TGI,[59],> 22.5 µM
